Experimental data from ChEMBL document CHEMBL1122492, “Synthesis of iodine-125 labeled (+/-)-15-(4-azidobenzyl)carazolol: a potent beta-adrenergic photoaffinity probe” (J Med Chem, 1983).

Experiments:
[1] = Dissociation constant against beta adrenergic receptor of frog erythrocyte membranes
[2] = Dissociation constant against beta adrenergic receptor of turkey erythrocyte membranes
[3] = Dissociation constant against beta adrenergic receptor

Kd [1] | Kd [2] | Kd [3] | Compound
0.02 nM | 0.02 nM |  | CC(C)(Cc1ccc(N=[N+]=[N-])c(I)c1)NCC(O)COc1cccc2[nH]c3ccccc3c12 (stereo not given)
 |  | 0.1 nM | CC(C)NCC(O)COc1cccc2[nH]c3ccccc3c12 (stereo not given) [CARAZOLOL]
0.02 nM | 0.02 nM |  | CC(C)(Cc1ccc(N=[N+]=[N-])cc1)NCC(O)COc1ccc(I)c2[nH]c3ccccc3c12 (stereo not given)
